Assay results taken from patent US20240165214A1, “COMPOSITIONS AND METHODS FOR STABILIZATION OF ALLOSTERIC PROTEINS” (priority 2021, published 2024).
Positions count from the first letter of the chain named. Names may count otherwise.

Columns and labels:
[1] = system: RNase B; experiment: BLI kinetics of FimH fimbriae binding to RNase B; design: species or system bovine; details: RNAseB binding
Method: To test the kinetics of fimbriae binding to RNase B, streptavidin-coated biosensors (SA, FortéBio) were first allowed to bind biotinylated RNase B (applied at a concentration of 10-20 μg/ml in 0.2% BSA HBS). […] The dissociation of the fimbriae-RNase B complexes was conducted in 0.2% BSA HBS. The binding sensorgrams after single reference subtraction (biosensors with 0.2% BSA HBS, or Fab824, respectively) were used for global fitting. […] The standard error that was given in the table for the kinetic parameters relates to the “fit” of the data to the model.

[2] = system: guinea pig red blood cells (RBC); experiment: RBC aggregation under dynamic (rocking) conditions; format: cell-based
Method: (§1) Guinea pig RBC (Colorado Serum Company) were washed with PBS three times. 50 μl of RBC suspension (1%) was mixed 1:1 with 50 μl of 4×10^8 cfu of type 1 fimbriated bacteria in a glass plate in the absence and presence of 1% αmm and continuously mixed by gently rocking at ˜2-3 s^−1. The aggregation of RBC was visually scored and the time at which noticeable aggregation was observed and reported in minutes (min). In some experiments, bacterial cells were first pre-incubated for 5 min with 67 μg/ml of mAbs in the glass plate and then mixed with RBC suspension in the absence and presence of 1% αmm. RBC rosette-formation assay under was performed by mixing equal amounts of serially diluted bacterial sus-pensions (starting from OD540 nm 1.0) and a 1% suspension of RBC in U-bottom microtiter plate wells as described previously.
(§2) Finally, we compared cell binding ability of the FimH-expressing bacteria under static and dynamic conditions by using two classical set-ups with agglutination of guinea pig red blood cells (RBC)—the model cells for type 1 flmbriae-mediated bacterial adhesion. In the static assays, different dilutions of bacteria were combined with a suspension of RBC in U-shaped microtiter wells and allowed to settle without shaking. […]

[3] = system: HRP; format: binding; details: fimbriae pre-treated with mAb824
Method: The assays were performed as described previously. In brief. 96-well microtiter plates were coated overnight with purified type 1 fimbriae in 0.02 M NaHCO3 buffer at pH 9.6 (0.1 mg/ml), followed by washes and quenching with 0.2% BSA in PBS. The immobilized fimbriae were incubated with HRP at a concentration of 50 μg/ml for 1 h in the absence or presence of 1% mannose. After extensive washing with PBS, bound horseradish peroxidase was detected by adding 100 μl of TMB substrate (Kirkegaard and Perry Laboratories, KPL) and absorbance was read at 650 nm. […] All incubations, unless stated otherwise, were performed at 37 C. The colorimetric reaction was developed in the presence of TMB substrate at RT and absorbance was read at 650 nm.

[4] = system: mAb21; experiment: mAb21 binding time course to immobilized fimbriae and three-state model; details: for mAb21 binding over time course: absence of mannose, 10 sec to 2 hours; for keq ± SEM: Keq=kact/kdeact; for time to 50% of the maximal optical density (OD50) of mAb21 binding: presence of soluble mannose
Method: The assays were performed as described previously. In brief. 96-well microtiter plates were coated overnight with purified type 1 fimbriae in 0.02 M NaHCO3 buffer at pH 9.6 (0.1 mg/ml), followed by washes and quenching with 0.2% BSA in PBS. The immobilized fimbriae were incubated with HRP at a concentration of 50 μg/ml for 1 h in the absence or presence of 1% mannose. After extensive washing with PBS, bound horseradish peroxidase was detected by adding 100 μl of TMB substrate (Kirkegaard and Perry Laboratories, KPL) and absorbance was read at 650 nm. […] After the incubation for indicated time, the plates were washed extensively with PBS and FimH-mAb21 complexes were detected using HRP-conjugated goat anti-mouse antibody (Sigma-Aldrich, diluted 1:3000). All incubations, unless stated otherwise, were performed at 37 C. The colorimetric reaction was developed in the presence of TMB substrate at RT and absorbance was read at 650 nm.
For our modeling, we made the following definitions and assumptions.
To estimate kmAb21, we assumed that LD^A27V-PD^FocH is essentially all in HAS in the presence of mannose, so we fit high time-resolution data with a saturable binding model,
We then estimated kact and kdeact for all four variants in the presence and absence of mannose by fitting this model to the data by minimizing the least square error between the model and data points divided by the value of the data. Parameters were estimated independently for the data from each day the experiment was performed, to provide multiple values of each constant.
There were two limitations to using this model to estimate these parameters. […] Second, in two additional conditions—LD^wt-PD^wt in the presence of mannose and LD^A27V-PD^wt in the absence of mannose, a wide range of values of the rate constants produced the same fitting error. To identify a lower bound for the rate constants, we fit kact while holding kdeact constant over a wide range of values and observed that the error was high for low rates but reached a plateau at higher rates. We identified the lowest kdeact and corresponding kact values at which the error was no more than 10% that of all higher values. Throughout this plateau, Keq=kact/kdeact remained within a tight and reproducible range, so was well-determined by the model. For these two conditions, the lower bounds for the two kinetic constants and the upper and lower bound for the equilibrium constants are reported in Table 8.
For the remaining five conditions, the rate constants as well as equilibrium constants were reproducible for a wide range of initial guesses, and between replicate experiments, so we consider these to be reliable. […] These values were consistent with the estimated bounds and are also reported in FIGS. 20C and 20D for illustration.

[5] = system: guinea pig red blood cells (RBC); experiment: RBC agglutination (rosette) under static conditions; format: cell-based
Method: as §1, §2

[6] = system: guinea pig RBC; experiment: Red blood cell (RBC) aggregation by bacteria under rocking (Example 1); format: cell-based
Method: Guinea pig RBC (Colorado Serum Company) were washed with PBS three times. 50 μl of RBC suspension (1%) was mixed 1:1 with 50 μl of 4×10^8 of type 1 fimbriated bacteria in a glass plate in the absence and presence of 1% αmm and continuously mixed at high speed on rotator (Model 260300F, Fisher Scientific) for extended period of time. The aggregation of RBC was visually scored and the time at which noticeable aggregation was observed and reported in minutes (min). In some experiments, bacterial cells were first pre-incubated for 5 min with 67 μg/ml of mAbs in the glass plate and then mixed with RBC suspension in the absence and presence of 1% αmm.

[7] = biological target: T1, FimH^wt (FimH adhesin of E. coli K12) (Escherichia coli K12, UniProt P08191 22-300); experiment: BLI; fimbriae on biotinylated RNase B on streptavidin probe; conformational change model; PBS
T1 construct: also called FimH^K12; LD^A27V-PD^wt
Method: To test the kinetics of fimbriae binding to RNase B, streptavidin-coated biosensors (SA, FortéBio) were first allowed to bind biotinylated RNase B (applied at a concentration of 10-20 μg/ml in 0.2% BSA HBS). […] The dissociation of the fimbriae-RNase B complexes was conducted in 0.2% BSA HBS. […] The standard error that was given in the table for the kinetic parameters relates to the “fit” of the data to the model.

[8] = system: asialofetuin; experiment: FmIH-dependent bacterial adhesion to asialofetuin; format: cell-based
Method: (§3) FmIH-dependent bacterial adhesion was analyzed as described previously with minor modifications (47). Briefly, Immulon 4HBX microtiter plates (Thermo Electron Corp.) were coated with 20 μg/mL of asialofetuin (Sigma-Aldrich) and plates were quenched with 0.2% BSA in PBS. Bacterial suspensions in PBS (OD540=2) were added to each well in a volume of 100 μl and plates were spun for 2 min at 750×g. After extensive washing, bound bacteria were stained with 0.1% (vol/vol) crystal violet for 20 min at room temperature and were washed several times with water. Then 100 μl of 50% (vol/vol) ethanol was added to each well, and the absorbance at a wavelength of 600 nm was measured. For inhibition, bacterial binding was tested in the presence of 1% galactose (Sigma).
as §3, with “[Kisiela D I, et al. (2015) Inhibition and Reversal of Microbial Attachment by an Antibody with Parasteric Activity against the FimH Adhesin of Uropathogenic E. coli. PLoS Pathog 11: e1004857].” for “(47).”, “(ThermoFisher Scientific)” for “(Thermo Electron Corp.)”

[9] = full-length FmIH in type 1 fimbrial background

In the case of “FimH^wt: 'wild-type' FimH adhesin from E. coli K12; b242: K12 and J96 express LD^A27V-PD^wt”, the “koff higher relative to FimH^FocH” value [1] is reported as ~1000 fold, the “kon higher relative to FimH^FocH” value [1] is reported as ~50 fold and the “lower affinity relative to FimH^FocH” value [1] is reported as ~10 fold. For the same molecule, the “Minimal IC of mannose” value [2] was “.1%”, the “binding of HRP in complex with mAb824” value [3] was “remained very weak” and the “mAb21 binding over time course” value [4] was “only marginal at the later time points”. For the same molecule, the “kact ± SEM” value ([4]; mannose absence) was >8.8 × 10^−5, the “kdeact ± SEM” value ([4]; mannose absence) was >2.3 × 10^0 and the “keq ± SEM” value ([4]; mannose absence) was 1.5 × 10^−3 to 4.0 × 10^−3. The “kact ± SEM” value ([4]; mannose presence) was 3.4 × 10^−3 ± 0.4 × 10^−3, the “kdeact ± SEM” value ([4]; mannose presence) was 8.7 × 10^−3 ± 1.7 × 10^−2 and the “keq ± SEM” value ([4]; mannose presence) was 3.9 × 10^−1 ± 0.9 × 10^−1. The “time to 50% of the maximal optical density (OD50) of mAb21 binding” value [4] was ~3 min, the “RBC binding / rosette formation” value [5] was “only at a relatively high concentration (low titer) of bacteria” and the “Time upon which noticeable aggregation of RBC was observed” value ([6]; mAb824 pre-incubation (67 μg/ml)) was >60 min. For the same molecule, the “Time upon which noticeable aggregation of RBC was observed” value ([6]; αmm (1%)) was >60 min.

With “LD^wt-PD^wt: naturally-occurring FimH from fecal E. coli strain F18, evolutionary wild-type” the “Minimal IC of mannose” value [2] was “.1%”, the “binding of HRP in complex with mAb824” value [3] was “remained very weak” and the “mAb21 binding over time course” value [4] was “No reliably measurable binding”. For the same molecule, the “kact ± SEM” value ([4]; mannose presence) was >2.0 × 10^−4, the “kdeact ± SEM” value ([4]; mannose presence) was >8.5 × 10^−2 and the “keq ± SEM” value ([4]; mannose presence) was 1.7 × 10^−2 to 2.3 × 10^−2. The “mAb21 binding to fimbriae” value ([4]; presence of 1% alpha-methyl-mannoside, 1 h) was “somewhat lower”, the “time to 50% of the maximal optical density (OD50) of mAb21 binding” value [4] was ~30 min and the “RBC binding / rosette formation” value [5] was “could not bind RBC at any concentration”.

B1: ribonuclease B (RNase B), bovine (enzyme, UniProt P61823 27-150, looked up)
chain: KETAAAKFERQHMDSSTSAASSSNYCNQMMKSRNLTKDRCKPVNTFVHESLADVQAVCSQKNVACKNGQTNCYQSYSTMSITDCRETGSSKYPNCAYKTTQANKHIIVACEGNPYVPVHFDASV
modifications: N-linked high-mannose (Man5) oligosaccharides; biotinylated with Sulfo-NHS-LC-Biotin
Molecule B1 has a Kd [7] of 149 nM, a koff [7] of 0.256 s⁻¹ and a kon [7] of 1.1e+06 M⁻¹ s⁻¹.

B2: FmIH^FocH: wild-type FmIH lectin domain fused to the heterogeneous FocH-type pilin domain (protein)
chain: FSCNVDGGSSIGAGTTSVYVNLDPVIQPGQNLVVDLSQHISCWNDYGGWYDTDHINLVQGSAFAGSLQSYKGSLYWNNVTYPFPLTTNTNVLDIGDKTPMPLPLKLYITPVGAAGGVVIKAGEVIARIHMYKIATLGSGNPRNFTWNIISNNSVVMPTGGCDVSARDVTVTLPDYPGSVPIPLTVRCDQTQSVSYTLSGSVADAGNSIFTNTASFSPAQGVGVQLTRNGTIIPANNTVSLGAVGTSAVSLGLTANYARTGGQVTAGNVQSIIGVTFVYQ
For B2, the “bacterial binding to asialofetuin” value [8, 9] was “increased binding relative to the wild-type adhesin”.

B3: V33E (protein, listed as Escherichia coli)
chain: FSCNVDGGSSIGAGTTSVYVNLDPVIQPGQNLEVDLSQHISCWNDYGGWYDTDHINLVQGSAFAGSLQSYKGSLYWNNVTYPFPLTTNTNVLDIGDKTPMPLPLKLYITPVGAAGGVVIKAGEVIARIHMYKIATLGSGNPRNFTWNIISNNSVVMPTGG
For B3, the “bacterial binding to asialofetuin” value [8, 9] was “activation of the binding phenotype”.

B4: L32E (protein, listed as Escherichia coli)
chain: B3 chain with L32E, E33V
With B4 the “bacterial binding to asialofetuin” value [8, 9] was “did not increase binding” and the “bacterial binding to asialofetuin” value ([8]; mutation in FmIH^FocH) was “decreased the binding properties of FmIH^FocH”.

B5: F63E (protein, listed as Escherichia coli)
chain: B3 chain with E33V, F63E
In the case of B5, the “bacterial binding to asialofetuin” value [8, 9] is reported as “activation of the binding phenotype”.
